One test deals with Acanthamoeba lugdunensis. Put plainly: Antiprotozoal activity against Acanthamoeba lugdunensis. The class given is functional.
For a further test, the system named is Candida albicans. Nature of the test: Antifungal activity against Candida albicans. It counts as functional.
The test system of the next test is HFL1. Put plainly: Cytotoxicity against human HFL1 cells. It counts as cell-based.
A further test deals with HeLa. Put plainly: Cytotoxicity against human HeLa cells. The class given is functional, cell-based.

Each structure is given as a SMILES string. Values after ≈ are worked out from the molar mass of the structure shown.

From ChEMBL document CHEMBL1156093, “Synthesis and biological activity of dialkylphosphocholines” (Bioorg Med Chem Lett, 2009) come the findings set out here.

The term MFC denotes the lowest tested concentration that kills the fungus rather than only halting it. The low end stands for greater fungicidal potency, the high end for weaker fungicidal potency. The IC50 is the midpoint of a concentration-inhibition curve.

Consider `CCCCCCCCCCCCOP(=O)([O-])OCC[N+](C)(C)CCCCCCCCCC`, for which the MTC with Acanthamoeba lugdunensis was >400 µM. The molecule further registered an MFC against Candida albicans of 9.7 µM (≈ 4.63 µg/mL). Further, the IC50 in the test on HFL1 worked out at 58.8 µM; in the test on HeLa, 131 µM.
As to `CCCCCCCCCCCCCCOP(=O)([O-])OCC[N+](C)(C)CCCCCCCC`, the MTC in the test on Acanthamoeba lugdunensis was >400 µM. This molecule displayed an MFC in the test with Candida albicans of 19.3 µM (≈ 9.22 µg/mL).
The matching figures for `CCCCCCCCCCCC[N+](C)(C)CCCCCCOP(=O)([O-])OCCCCCCCCCC`: >400 µM and 34.8 µM (≈ 18.6 µg/mL).
In the test with Acanthamoeba lugdunensis, `CCCCCCCCCCCC[N+](C)(C)CCCCOP(=O)([O-])OCCCCCCCCCC` had an MTC of 200 µM. This molecule also returned an MFC in the test on Candida albicans of 18.6 µM (≈ 9.41 µg/mL). The values for the IC50 with HFL1 and with HeLa were 94.6 µM and 148 µM, respectively.
For the molecule `CCCCCCCCCCOP(=O)([O-])OCC[N+](C)(C)CCCCCCCCCC`, in the test on Acanthamoeba lugdunensis, the MTC was 25 µM. This molecule displayed an MFC in the test on Candida albicans of 20.5 µM (≈ 9.22 µg/mL).
For `CCCCCCCCCCCCCCCCCCCC[N+](C)(C)CCOP(=O)([O-])OCC` the same measures were >400 µM and 1240 µM (≈ 592 µg/mL).
Turning to `CCCCCCCCCCCCCC[N+](C)(C)CCOP(=O)([O-])OCCCCCCCC`, the MTC in the test with Acanthamoeba lugdunensis was >400 µM. In the test on Candida albicans, this molecule came in with an MFC of 9.7 µM (≈ 4.63 µg/mL).
As for `CCCCCCCCCCCC[N+](C)(C)CCCOP(=O)([O-])OCCCCCCCCCC`, the MTC in the test on Acanthamoeba lugdunensis was 100 µM. In the test with Candida albicans, this molecule yielded an MFC of 9.4 µM (≈ 4.62 µg/mL). In addition, the IC50 in the test on HFL1 stood at 57.7 µM; with HeLa, 112 µM.
The matching figures for `CCCCCCCCCCCCCCCC[N+](C)(C)CCOP(=O)([O-])OCCCCCC`: >400 µM, 19.3 µM (≈ 9.22 µg/mL), 110 µM and 170 µM.
For `CCCCCCCCCCCCCCCCCCCCOP(=O)([O-])OCC[N+](C)(C)CC` the same measures were >400 µM, 619 µM (≈ 296 µg/mL), 27.2 µM and 20.3 µM.
On to `CCCCCCCCCC[N+](C)(C)CC[N+](C)(C)CCCCCCCCCC.[Br-].[Br-]`, for which the MTC in the test on Acanthamoeba lugdunensis came out at 200 µM. The MFC in the test with Candida albicans worked out at 17.5 µM.
For `CCCCCCCCCCCCCCCCOP(=O)([O-])OCC[N+](C)(C)CCCCCC` the same measures were >400 µM and 77.4 µM (≈ 37 µg/mL).
On to `CCCCCCCCCCCC[N+](C)(C)CCOP(=O)([O-])OCCCCCCCCCC`, for which, in the test on Acanthamoeba lugdunensis, the MTC is >400 µM. This molecule also had a minimum fungicidal concentration (MFC) against Candida albicans of 19.3 µM (≈ 9.22 µg/mL). Also, the IC50 in the test on HFL1 turned out to be 43.8 µM; in the test with HeLa, 118 µM.
The matching figures for `CCCCCCCCCCCCCCCCCCOP(=O)([O-])OCC[N+](C)(C)CCCC`: >400 µM, 19.3 µM (≈ 9.22 µg/mL), 113 µM and 161 µM.
With `CCCCCCCCCCCC[N+](C)(C)CCCCCCCCCCOP(=O)([O-])OCCCCCCCCCC`, the MTC with Acanthamoeba lugdunensis was >400 µM. Also, the MFC with Candida albicans was 8100 µM (≈ 4780 µg/mL).
For `CCCCCCCCCCCCCCCCCC[N+](C)(C)CCOP(=O)([O-])OCCCC` the same measures were >400 µM and 9.7 µM (≈ 4.63 µg/mL).
Molecule `CCCCCCCCCCCCCCCCOP(=O)([O-])OCC[N+](C)(C)C` [MILTEFOSINE] displayed an MTC in the test with Acanthamoeba lugdunensis of 400 µM. In the test with Candida albicans, this molecule had an MFC of 4 µM (≈ 1.63 µg/mL). Further, the IC50 worked out at 203 µM with HFL1 and 129 µM in the test with HeLa.
